We go through 14 compounds from US6689792B2, “Antipsychotic indolyl derivatives” (Wyeth, priority 1998, dated 2004).

Where a name gives a salt, the structure may show the parent alone.

One series deals with T1, human 5HT1A receptor (Homo sapiens, UniProt P08908).
T1 construct: expressed in transfected cells
T1 sequence (P08908 1-422): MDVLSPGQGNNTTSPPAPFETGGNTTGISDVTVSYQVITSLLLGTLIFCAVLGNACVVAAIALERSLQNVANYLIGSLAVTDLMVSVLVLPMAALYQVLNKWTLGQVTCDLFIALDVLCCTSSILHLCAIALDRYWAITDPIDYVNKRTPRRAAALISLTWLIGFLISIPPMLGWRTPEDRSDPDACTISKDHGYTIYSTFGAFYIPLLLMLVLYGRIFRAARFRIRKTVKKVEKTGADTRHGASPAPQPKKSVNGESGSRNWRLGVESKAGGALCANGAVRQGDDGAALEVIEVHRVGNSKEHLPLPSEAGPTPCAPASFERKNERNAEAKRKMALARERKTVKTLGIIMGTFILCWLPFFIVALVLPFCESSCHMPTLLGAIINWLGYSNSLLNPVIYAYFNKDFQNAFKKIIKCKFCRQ
Put plainly: [3H] 8-OH-DPAT displacement binding in CHO cells transfected with human 5HT1A receptor. The following applies: [3H] 8-OH-DPAT 1.5 nM. How it is done:
8-OH-DPAT binding in CHO cells stabily transfected with human 5HT1A receptor. Stabily transfected CHO cells are grown in DMEM containing 10% heat inactivated FBS and non-essential amino acids. Cells are scraped off the plate, transferred to centrifuge tubes, and washed twice by centrifugation (2000 rpm for 10 min., 4° C.) in buffer (50 mM Tris pH 7.5). The resulting pellets are aliquoted and placed at −80° C. On the day of assay, the cells are thawed on ice and resuspended in buffer. The binding assay is performed in a 96 well microtiter plate in a total volume of 250 μL. […] Following a 30 minute incubation at room temperature, the reaction is terminated by the addition of ice cold buffer and rapid filtration through a GF/B filter presoaked for 30 minutes in 0.5% PEI.

The target in the next series is T2, serotonin transporter (Rattus norvegicus, UniProt P31652).
T2 construct: frontal cortical membranes prepared from male S.D. rats; from tissue; host or cells: frontal cortical membranes of male Sprague-Dawley rats
Briefly: 3H-Paroxetine binding to rat frontal cortical membranes. The following applies: read-out: SSRi % Inhibition (rat brain) at 0.1 μM. How it is done:
^3H-Paroxetine binding to assess affinity of drugs for the serotonin transporter
A protocol similar to that used by Cheetham et al. (Neuropharmacol. 32:737, 1993) was used to determine the affinity of compounds for the serotonin transporter. Briefly, frontal cortical membranes prepared from male S.D. rats were incubated with ^3H-paroxetine (0.1 nM) for 60 min at 25° C. All tubes also contained either vehicle, test compound (one to eight concentrations), or a saturating concentration of fluoxetine (10 μM) to define […]. All reactions are terminated by the addition of ice cold Tris buffer followed by rapid filtration using a Tom Tech filtration device to separate bound from free ^3H-paroxetine. Bound radioactivity was quantitated using a Wallac 1205 Beta Plate® counter. Results achieved are expressed below as % inhibition of Paroxetine binding at a given concentration.

Series [1] addresses T3, human dopamine D2 receptor (Homo sapiens, UniProt P14416).
T3 construct: expressed in transfected cells
Briefly: [3H]-Spiperone displacement binding in CHO cells transfected with human dopamine D2 receptor. The settings on record: [3H]-Spiperone 0.5 nM, CHO cell membranes. How it is done: CHO cells expressing the human dopamine D2 receptor were cultured in suspension by expansion (every 3-4 days) in a serum free media to provide approximately 7.5×10^5 cells/ml. The cells were harvested by centrifugation (900×g for 10 min.), resuspended in half volume of 1×dulbecco PBS solution at pH 7.4, and after a further recentrifugation, the cell pellet was resuspended in 50 mM Tris.HCl (pH 7.4) containing 1.5 mM CaCl2, 5.0 mM EDTA, 5.0 mM KCl, 120 mM NaCl, 1.0 mM PMSF and 1.0 mg % leupeptin. The cells were homogenized, centrifuged at 40,000×g for 30 minutes and resuspended in fresh buffer (10 ml), and the process repeated twice. […] The binding assay is performed in a 96 well microtiter plate. 100 μl of buffer is added to the wells, and those receiving a displacer for nonspecific binding (NSB) assessment or test compounds receive 80 μl of incubation buffer. […] The reaction is initiated by the addition of 80 μl of the tissue membrane, and after 120 minutes at room temperature the wells are harvested using a Brandell® Harvester onto glass fiber filter presoaked in 0.1% polyethylimine.

T2 sequence (P31652 whole entry): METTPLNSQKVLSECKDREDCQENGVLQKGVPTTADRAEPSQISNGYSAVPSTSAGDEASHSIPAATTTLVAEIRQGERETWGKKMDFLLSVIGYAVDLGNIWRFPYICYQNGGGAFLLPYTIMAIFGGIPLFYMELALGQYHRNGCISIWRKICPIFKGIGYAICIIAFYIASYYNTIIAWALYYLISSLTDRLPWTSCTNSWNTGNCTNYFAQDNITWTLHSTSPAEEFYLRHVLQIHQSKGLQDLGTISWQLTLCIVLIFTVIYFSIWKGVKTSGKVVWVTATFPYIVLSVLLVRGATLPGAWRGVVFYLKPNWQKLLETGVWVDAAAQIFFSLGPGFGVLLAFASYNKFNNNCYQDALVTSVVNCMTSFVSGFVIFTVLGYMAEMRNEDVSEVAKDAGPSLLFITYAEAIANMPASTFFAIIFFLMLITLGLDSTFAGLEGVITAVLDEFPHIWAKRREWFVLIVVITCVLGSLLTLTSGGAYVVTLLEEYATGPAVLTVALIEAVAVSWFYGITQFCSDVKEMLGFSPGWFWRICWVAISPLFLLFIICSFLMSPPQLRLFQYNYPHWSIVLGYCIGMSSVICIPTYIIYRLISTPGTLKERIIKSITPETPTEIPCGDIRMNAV
T3 sequence (P14416 whole entry): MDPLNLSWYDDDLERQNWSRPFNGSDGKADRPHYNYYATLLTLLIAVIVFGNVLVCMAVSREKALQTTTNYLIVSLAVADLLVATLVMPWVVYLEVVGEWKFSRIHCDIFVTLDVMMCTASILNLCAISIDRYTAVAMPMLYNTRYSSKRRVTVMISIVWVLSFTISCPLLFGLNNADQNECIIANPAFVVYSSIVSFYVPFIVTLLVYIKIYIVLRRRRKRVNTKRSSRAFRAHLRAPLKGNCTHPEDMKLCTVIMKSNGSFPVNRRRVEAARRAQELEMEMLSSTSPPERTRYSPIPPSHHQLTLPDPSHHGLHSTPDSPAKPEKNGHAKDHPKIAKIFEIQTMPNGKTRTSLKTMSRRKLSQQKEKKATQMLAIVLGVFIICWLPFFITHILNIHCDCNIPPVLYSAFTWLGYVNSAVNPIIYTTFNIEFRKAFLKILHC

Regarding `O=[N+]([O-])c1ccc(OCC(O)CN2CCN(c3cccc4[nH]ccc34)CC2)cc1` (stereo not shown) (as salt: HCl) [Example 4, 1-[4-(1H-Indol-4-yl)-piperazin-1-yl]-3-(4-nitro-phenoxy)-propan-2-ol], the melting point is 248 °C.
As to `OC(COc1cccc2[nH]ccc12)CN1CCN(c2cccc3[nH]ccc23)CC1` (stereo not shown) (as salt: fumaric acid salt) [Example 1, 1-(1H-Indol-4-yloxy)-3-[4-(1H-indol-4-yl)piperazin-1-yl]-propan-2-ol], the melting point was in the range of 147 to 150 °C.
Consider `OC(COc1ccc(Cl)cc1)CN1CCN(c2cccc3[nH]ccc23)CC1` (stereo not shown) (as salt: fumaric acid salt) [Example 2, 1-(4-Chloro-phenoxy)-3-[4-(1H-indol-4-yl)piperazin-1-yl]-propan-2-ol], for which the melting point fell in the range of 224 to 225 °C.
Take `OC(COc1ccccc1Cl)CN1CCN(c2cccc3[nH]ccc23)CC1` (stereo not shown) (as salt: fumaric acid salt) [Example 5, 1-(2-Chloro-phenoxy)-3-[4-(1H-indol-4-yl)piperazin-1-yl]-propan-2-ol]: the melting point was determined as 207 °C.
For the compound `OC(COc1ccc(F)cc1)CN1CCN(c2cccc3[nH]ccc23)CC1` (stereo not shown) (as salt: fumaric acid salt) [Example 6, 1-(4-Fluoro-phenoxy)-3-[4-(1H-indol-4-yl)piperazin-1-yl]-propan-2-ol], the melting point fell in the range of 234 to 235 °C.
Compound `OC(COc1ccccc1-c1ccccc1)CN1CCN(c2cccc3[nH]ccc23)CC1` (stereo not shown) (as salt: fumaric acid salt) [Example 8, 1-(Biphenyl-2-yloxy)-3-[4-(1H-indol-4-yl)piperazin-1-yl]-propan-2-ol] yielded a melting point of 214 to 215 °C.
On to `OC(COc1cccc2[nH]ccc12)CN1CCN(c2cccc3[nH]ccc23)CC1` (stereo not shown) [Example 1, 1-(1H-Indol-4-yloxy)-3-[4-(1H-indol-4-yl)piperazin-1-yl]-propan-2-ol], for which, on human 5HT1A receptor, the affinity, expressed as Ki, was 6 nM. Moreover, the inhibition at 0.1 µM on serotonin transporter was found to be 32%.
On to `OC(COc1ccc(Cl)cc1)CN1CCN(c2cccc3[nH]ccc23)CC1` (stereo not shown) [Example 2, 1-(4-Chloro-phenoxy)-3-[4-(1H-indol-4-yl)piperazin-1-yl]-propan-2-ol], for which the Ki at human 5HT1A receptor turned out to be 7.6 nM; in series [1] it was 33.5 nM. For the same compound, the inhibition at 0.1 µM on serotonin transporter is 13%.
For the compound `COc1ccc(OCC(O)CN2CCN(c3cccc4[nH]ccc34)CC2)cc1` (stereo not shown) [Example 3, 1-[4-(1H-Indol-4-yl)-piperazin-1-yl]-3-(4-methoxy-phenoxy)-propan-2-ol], the Ki at human 5HT1A receptor was 1.8 nM. Moreover, on serotonin transporter, the inhibition at 0.1 µM turned out to be 17%.
Regarding `O=[N+]([O-])c1ccc(OCC(O)CN2CCN(c3cccc4[nH]ccc34)CC2)cc1` (stereo not shown) [Example 4, 1-[4-(1H-Indol-4-yl)-piperazin-1-yl]-3-(4-nitro-phenoxy)-propan-2-ol], the affinity at human 5HT1A receptor, expressed as Ki, was 8.8 nM. Moreover, the inhibition at 0.1 µM on serotonin transporter came out at 15%.
Regarding `OC(COc1ccccc1Cl)CN1CCN(c2cccc3[nH]ccc23)CC1` (stereo not shown) [Example 5, 1-(2-Chloro-phenoxy)-3-[4-(1H-indol-4-yl)piperazin-1-yl]-propan-2-ol], the Ki on human 5HT1A receptor came out at 12.1 nM; in series [1] it was 31.9 nM. Also, at serotonin transporter, the inhibition at 0.1 µM amounted to 11%.
For `OC(COc1ccc(F)cc1)CN1CCN(c2cccc3[nH]ccc23)CC1` (stereo not shown) [Example 6, 1-(4-Fluoro-phenoxy)-3-[4-(1H-indol-4-yl)piperazin-1-yl]-propan-2-ol], the Ki (at human 5HT1A receptor; in series [1]) was 10.4 nM in each case. For the same compound, on serotonin transporter, the inhibition at 0.1 µM stood at 0%.
`NC(=O)c1cc2c(OCC(O)CN3CCN(c4cccc5[nH]ccc45)CC3)cccc2[nH]1` (stereo not shown) [Example 7, 4 {2-Hydroxy-3-[4-(1H-indol-4-yl)-piperazin-1-yl]propoxy}-1H-indole-2-carboxylic acid amide] returned a Ki on human 5HT1A receptor of 7.2 nM. Besides, at serotonin transporter, the inhibition at 0.1 µM was 3%.
On to `OC(COc1ccccc1-c1ccccc1)CN1CCN(c2cccc3[nH]ccc23)CC1` (stereo not shown) [Example 8, 1-(Biphenyl-2-yloxy)-3-[4-(1H-indol-4-yl)piperazin-1-yl]-propan-2-ol], for which, on human 5HT1A receptor, the affinity corresponds to a Ki of 4.5 nM. The inhibition at 0.1 µM at serotonin transporter is 0%.
